The record followed here is patent US20200397686A1, “Methods of Reducing Burning or Stinging Sensation Attributed to Certain Compositions” (Monell Chemical Senses Center, priority 2018, published 2020).

The assay relates to burning sensation in the mouth produced by use of LISTERINE mouthwash. Kind of assay: Reduction of perceived burning sensation after rinsing with LISTERINE mouthwash with or without sophorolipid (six subjects). The note with it: five of six subjects; treated mouthwash (sophorolipid added) vs control mouthwash with no sophorolipid; rinse held in mouth 10-60 seconds before spitting; self-reported. In kind it is in vivo, human. The procedure: FIG. 1 is a graph that illustrates that a sophorolipid, having an oleic acid fatty acid tail, when added to mouthwash blocks or inhibits the burning sensation taste produced by use of LISTERINE® mouthwash. As discussed in Example 1 below, six subjects were instructed to rinse their mouths with either control (mouthwash with no sophorolipid) or the treated mouthwash (with 10 μM to 100 μM of the sophorolipid). Subjects reported the results as perceived burning sensation. Five of six subjects reported reductions of at least 50% in perceived burn produced by use of the treated mouthwash vs. use of the control.
Six subjects were involved in the study.
A final concentration of […] of the above noted sophorolipid was added to the mouthwash. The mouthwash with no sophorolipid added was the control. The subjects were told to rinse their mouths with either control or the treated mouthwash and hold it in their mouths for 10-60 seconds before spitting. Subjects were told to report the results as perceived burning sensation.
As reported in the graph of FIG. 1, five of six subjects reported reductions of at least 50% in perceived burn produced by use of the […].

Take sophorolipid: the “reduction in perceived burn” value was “at least 50%”.
